Data reported in the supplement of paper PMC4862054.

system: HDQ-P1; assay: normalised viability (% of control), CellTiter-Blue; higher = more viable cells (about 100 = DMSO control); settings: 100 nM; incubation time: 72 h
Method in brief: (§1)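 Breast cancer cell lines in 20 µl suspension were seeded onto 384-well plates pre-loaded with compound dissolved in 5 µl medium, then incubated 72 h. CellTiter-Blue reagent (2.5 µl) was added for 2 h at 37 °C and fluorescence read at 560/590 nm. Each plate was normalised to vehicle (100) and a positive kill control (0), with Z'-factor quality control. The value is normalised viability at one listed concentration of the series.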

| Structure (SMILES) | normalised viability |
| --- | --- |
| O=C1CN2Cc3c(ccc(Cl)c3Cl)N=C2N1 [Anagrelide] | 99.2% |
| CC1=C2C[C@H]3[C@@H](CC=C4C[C@@H](O)CC[C@@]43C)[C@@H]2CC[C@]12O[C@@H]1C[C@H](C)CN[C@H]1[C@H]2C [Cyclopamine] | 114% |
| C[C@]1(O)C[C@@H](c2nc(-c3ccc4ccc(-c5ccccc5)nc4c3)c3c(N)nccn32)C1 [OSI-906] | 85.4% |
| COc1cc(F)c(F)c(Nc2ccc(I)cc2F)c1NS(=O)(=O)C1(C[C@H](O)CO)CC1 [RDEA119] | 110% |

same assay, conditions: 120 nM; incubation time: 72 h

| Structure (SMILES) | normalised viability |
| --- | --- |
| CC[C@@H]1C(=O)OC[C@@H]1Cc1cncn1C [Pilocarpine] | 137% |

same assay, conditions: 400 nM; incubation time: 72 h

| Structure (SMILES) | normalised viability |
| --- | --- |
| CC[C@@H]1C(=O)OC[C@@H]1Cc1cncn1C [Pilocarpine] | 118% |

system: CAL-148; assay: as above; settings: 0.297 nM; incubation time: 72 h
Method in brief: as §1

| Structure (SMILES) | normalised viability |
| --- | --- |
| C[C@]12CC[C@@H]3c4ccc(OC(=O)N(CCCl)CCCl)cc4CC[C@H]3[C@@H]1CC[C@@H]2O [Estramustine] | 118% |

same assay, conditions: 2.97 nM; incubation time: 72 h

| Structure (SMILES) | normalised viability |
| --- | --- |
| C[C@]12CC[C@@H]3c4ccc(OC(=O)N(CCCl)CCCl)cc4CC[C@H]3[C@@H]1CC[C@@H]2O [Estramustine] | 101% |

same assay, conditions: 3 nM; incubation time: 72 h

| Structure (SMILES) | normalised viability |
| --- | --- |
| CC(=O)c1c(C)c2cnc(Nc3ccc(N4CCNCC4)cn3)nc2n(C2CCCC2)c1=O | 91% |
| Oc1ncnc2[nH]ncc12 [Allopurinol] | 113% |
| O=C1CN2Cc3c(ccc(Cl)c3Cl)N=C2N1 [Anagrelide] | 96.5% |
| CC1=C2C[C@H]3[C@@H](CC=C4C[C@@H](O)CC[C@@]43C)[C@@H]2CC[C@]12O[C@@H]1C[C@H](C)CN[C@H]1[C@H]2C [Cyclopamine] | 104% |
| C[C@]1(O)C[C@@H](c2nc(-c3ccc4ccc(-c5ccccc5)nc4c3)c3c(N)nccn32)C1 [OSI-906] | 96.8% |
| COc1cc(F)c(F)c(Nc2ccc(I)cc2F)c1NS(=O)(=O)C1(C[C@H](O)CO)CC1 [RDEA119] | 91.9% |

same assay, conditions: 9.9 nM; incubation time: 72 h

| Structure (SMILES) | normalised viability |
| --- | --- |
| C[C@]12CC[C@@H]3c4ccc(OC(=O)N(CCCl)CCCl)cc4CC[C@H]3[C@@H]1CC[C@@H]2O [Estramustine] | 106% |

same assay, conditions: 12 nM; incubation time: 72 h

| Structure (SMILES) | normalised viability |
| --- | --- |
| CC[C@@H]1C(=O)OC[C@@H]1Cc1cncn1C [Pilocarpine] | 95.5% |

same assay, conditions: 30 nM; incubation time: 72 h

| Structure (SMILES) | normalised viability |
| --- | --- |
| CC(=O)c1c(C)c2cnc(Nc3ccc(N4CCNCC4)cn3)nc2n(C2CCCC2)c1=O | 89.4% |
| Oc1ncnc2[nH]ncc12 [Allopurinol] | 121% |
| O=C1CN2Cc3c(ccc(Cl)c3Cl)N=C2N1 [Anagrelide] | 102% |
| CC1=C2C[C@H]3[C@@H](CC=C4C[C@@H](O)CC[C@@]43C)[C@@H]2CC[C@]12O[C@@H]1C[C@H](C)CN[C@H]1[C@H]2C [Cyclopamine] | 117% |
| C[C@]1(O)C[C@@H](c2nc(-c3ccc4ccc(-c5ccccc5)nc4c3)c3c(N)nccn32)C1 [OSI-906] | 89.8% |
| COc1cc(F)c(F)c(Nc2ccc(I)cc2F)c1NS(=O)(=O)C1(C[C@H](O)CO)CC1 [RDEA119] | 80.7% |

same assay, conditions: 100 nM; incubation time: 72 h

| Structure (SMILES) | normalised viability |
| --- | --- |
| CC(=O)c1c(C)c2cnc(Nc3ccc(N4CCNCC4)cn3)nc2n(C2CCCC2)c1=O | 93.6% |
| Oc1ncnc2[nH]ncc12 [Allopurinol] | 120% |
| O=C1CN2Cc3c(ccc(Cl)c3Cl)N=C2N1 [Anagrelide] | 103% |
| CC1=C2C[C@H]3[C@@H](CC=C4C[C@@H](O)CC[C@@]43C)[C@@H]2CC[C@]12O[C@@H]1C[C@H](C)CN[C@H]1[C@H]2C [Cyclopamine] | 110% |
| C[C@]1(O)C[C@@H](c2nc(-c3ccc4ccc(-c5ccccc5)nc4c3)c3c(N)nccn32)C1 [OSI-906] | 91.7% |
| COc1cc(F)c(F)c(Nc2ccc(I)cc2F)c1NS(=O)(=O)C1(C[C@H](O)CO)CC1 [RDEA119] | 80% |

same assay, conditions: 120 nM; incubation time: 72 h

| Structure (SMILES) | normalised viability |
| --- | --- |
| CC[C@@H]1C(=O)OC[C@@H]1Cc1cncn1C [Pilocarpine] | 101% |

same assay, conditions: 400 nM; incubation time: 72 h

| Structure (SMILES) | normalised viability |
| --- | --- |
| CC[C@@H]1C(=O)OC[C@@H]1Cc1cncn1C [Pilocarpine] | 104% |

system: CAL-51; assay: as above; settings: 0.297 nM; incubation time: 72 h
Method in brief: as §1

| Structure (SMILES) | normalised viability |
| --- | --- |
| C[C@]12CC[C@@H]3c4ccc(OC(=O)N(CCCl)CCCl)cc4CC[C@H]3[C@@H]1CC[C@@H]2O [Estramustine] | 88.7% |

same assay, conditions: 2.97 nM; incubation time: 72 h

| Structure (SMILES) | normalised viability |
| --- | --- |
| C[C@]12CC[C@@H]3c4ccc(OC(=O)N(CCCl)CCCl)cc4CC[C@H]3[C@@H]1CC[C@@H]2O [Estramustine] | 86.3% |

same assay, conditions: 3 nM; incubation time: 72 h

| Structure (SMILES) | normalised viability |
| --- | --- |
| CC(=O)c1c(C)c2cnc(Nc3ccc(N4CCNCC4)cn3)nc2n(C2CCCC2)c1=O | 106% |
| Oc1ncnc2[nH]ncc12 [Allopurinol] | 98.2% |
| O=C1CN2Cc3c(ccc(Cl)c3Cl)N=C2N1 [Anagrelide] | 110% |
| CC1=C2C[C@H]3[C@@H](CC=C4C[C@@H](O)CC[C@@]43C)[C@@H]2CC[C@]12O[C@@H]1C[C@H](C)CN[C@H]1[C@H]2C [Cyclopamine] | 114% |
| C[C@]1(O)C[C@@H](c2nc(-c3ccc4ccc(-c5ccccc5)nc4c3)c3c(N)nccn32)C1 [OSI-906] | 91.2% |
| COc1cc(F)c(F)c(Nc2ccc(I)cc2F)c1NS(=O)(=O)C1(C[C@H](O)CO)CC1 [RDEA119] | 97% |

same assay, conditions: 9.9 nM; incubation time: 72 h

| Structure (SMILES) | normalised viability |
| --- | --- |
| C[C@]12CC[C@@H]3c4ccc(OC(=O)N(CCCl)CCCl)cc4CC[C@H]3[C@@H]1CC[C@@H]2O [Estramustine] | 86.7% |

same assay, conditions: 12 nM; incubation time: 72 h

| Structure (SMILES) | normalised viability |
| --- | --- |
| CC[C@@H]1C(=O)OC[C@@H]1Cc1cncn1C [Pilocarpine] | 110% |

same assay, conditions: 30 nM; incubation time: 72 h

| Structure (SMILES) | normalised viability |
| --- | --- |
| CC(=O)c1c(C)c2cnc(Nc3ccc(N4CCNCC4)cn3)nc2n(C2CCCC2)c1=O | 99.8% |
| Oc1ncnc2[nH]ncc12 [Allopurinol] | 91.9% |
| O=C1CN2Cc3c(ccc(Cl)c3Cl)N=C2N1 [Anagrelide] | 96.5% |
| CC1=C2C[C@H]3[C@@H](CC=C4C[C@@H](O)CC[C@@]43C)[C@@H]2CC[C@]12O[C@@H]1C[C@H](C)CN[C@H]1[C@H]2C [Cyclopamine] | 104% |
| C[C@]1(O)C[C@@H](c2nc(-c3ccc4ccc(-c5ccccc5)nc4c3)c3c(N)nccn32)C1 [OSI-906] | 97.5% |
| COc1cc(F)c(F)c(Nc2ccc(I)cc2F)c1NS(=O)(=O)C1(C[C@H](O)CO)CC1 [RDEA119] | 84.5% |
